# Experimental data: patent US20260027122A1, “USE OF IMIDAZOLINONE DERIVATIVE IN COMBINATION WITH RADIOTHERAPY IN TREATMENT OF TUMORS” (CHENGDU BAIYU PHARMACEUTICAL CO., LTD., priority 2022, published 2026)
# Marks after values point to notes of the source that are not given here.
# Columns and labels:
# [1] = BALB/c mouse model bearing CT26 transplanted tumor: body weight of mice; format: in vivo; details: for Body weight: Compound A 20 mpk once a day + IR 2 Gy for 5 consecutive days, in g (unit assumed)
# Source text: (§1) Female BALB/c mice were selected to constitute a CT26 subcutaneous transplanted tumor model by subcutaneous injection of tumor cells. When the mean tumor volume reached 150-200 mm^3, mice were divided into 3 experimental groups: Vehicle, IR, and (Compound A (20 mpk)+IR), respectively, with 8 animals per group and 24 animals in total for grouping experiments. Each irradiated group was given an irradiation dose of 2 Gy for 5 consecutive days, the administration group was given the corresponding drug once a day for 39 consecutive days, and the Vehicle group was given a vehicle.
# 2.2 Body weight of mice: mice were weighed at least twice a week during a drug treatment cycle.
# CT26 transplanted tumor = assay: Inhibition experiment using BALB/c mouse model bearing CT26 transplanted tumor: tumor volume; format: in vivo, BALB/c mice; details: for Tumor volume (Mean ± SEM): Compound A 20 mpk once a day + IR 2 Gy for 5 consecutive days
# Source text: as §1
# 2.1 Tumor volume: during a drug treatment cycle, the long diameter (a) and short diameter (b) of tumor tissue were measured using an electronic vernier caliper to calculate the volume of the tumor (tumor volume=0.5×a×b^2).
# [2] = compound A in combination with IR
structure (smiles),measurement,setting,value
CCn1c(=O)n(C2CCOCC2)c2nc(Nc3cc(F)c(C(N)=O)cc3C)ncc21 [Compound A],Body weight,[1]; D0,16.8 ± 0.3
same,Body weight,[1]; D4,17.1 ± 0.3
same,Body weight,[1]; D7,16.0 ± 0.2
same,Body weight,[1]; D11,17.6 ± 0.2
same,Body weight,[1]; D14,17.9 ± 0.2
same,Body weight,[1]; D18,18.6 ± 0.2
same,Body weight,[1]; D21,19.1 ± 0.2
same,Body weight,[1]; D25,19.4 ± 0.3
same,Body weight,[1]; D28,19.7 ± 0.2
same,Body weight,[1]; D32,19.9 ± 0.4
same,Body weight,[1]; D35,20.1 ± 0.3
same,Body weight,[1]; D39,19.6 ± 0.3
same,Tolerance of the animals,[1]; compound A in combination with radiotherapy,good tolerance
same,Effect on body weight gain of animals,"[1]; compound A in combination with radiotherapy, to D39",no effect on body weight gain
same,Tumor volume (Mean ± SEM),CT26 transplanted tumor; D0 (day of grouping),168 ± 22 mm^3
same,Tumor volume (Mean ± SEM),CT26 transplanted tumor; D4,260 ± 41 mm^3
same,Tumor volume (Mean ± SEM),CT26 transplanted tumor; D7,284 ± 47* mm^3
same,Tumor volume (Mean ± SEM),CT26 transplanted tumor; D11,253 ± 56*** mm^3
same,Tumor volume (Mean ± SEM),CT26 transplanted tumor; D14,155 ± 28*** mm^3
same,Tumor volume (Mean ± SEM),CT26 transplanted tumor; D18,101 ± 33***# mm^3
same,Tumor volume (Mean ± SEM),CT26 transplanted tumor; D21,93 ± 34# mm^3
same,Tumor volume (Mean ± SEM),CT26 transplanted tumor; D25,169 ± 71# mm^3
same,Tumor volume (Mean ± SEM),CT26 transplanted tumor; D28,288 ± 105# mm^3
same,Tumor volume (Mean ± SEM),CT26 transplanted tumor; D32,462 ± 148# mm^3
same,Tumor volume (Mean ± SEM),CT26 transplanted tumor; D35,605 ± 189# mm^3
same,Tumor volume (Mean ± SEM),CT26 transplanted tumor; D39,828 ± 247# mm^3
same,Effect on the anti-tumor efficacy of radiotherapy,CT26 transplanted tumor; [2],significantly enhance the anti-tumor efficacy of radiotherapy
same,Tumor volume compared to the Vehicle and IR groups,CT26 transplanted tumor; [2],significantly reduced
